Laboratory results from publication PMC9821843, “Powerful Potential of Polyfluoroalkyl-Containing 4-Arylhydrazinylidenepyrazol-3-ones for Pharmaceuticals” (Molecules, 2022).
Read-outs that look alike come from different tables or passages of the source.

Key:
HeLa tumor cell line = assay: Cytotoxicity against HeLa cells (MTT assay); format: cell-based, human; conditions: Homo sapiens, HeLa, 72 h, read-out: IC50, HeLa
Protocol: (§1) Cytotoxicity of compounds was evaluated using a culture of human dermal fibroblasts, which were isolated in the Laboratory of Cell Cultures of the Institute of Medical Cell Technologies, Ekaterinburg, Russia and a HeLa tumor cell line obtained at the shared research facility «Vertebrate cell culture collection» of the Institute of Cytology of the Russian Academy of Sciences, St. Petersburg, Russia. Cells were seeded in 96-well plates in the inoculum dose of 2 × 10^5 cells/mL and cultured for 24 h in DMEM, with 1% glutamine in the presence of 10% fetal bovine serum and gentamicin (50 mg/L) at 37 °C, with humidified atmosphere of 5% CO2. Then compounds, which were dissolved in DMSO, were added to the wells at the final concentrations of 10^–7, 10^–6, 10^–5 and 10^–4 M. The cells were incubated with compounds for 72 h, after which cell viability was assessed using the standard MTT assay. The assay was carried out in four replicates with negative (culture medium), positive (solution of the cytotoxic drug camptothecin at a concentration of 3 mM) controls and the solvent control (DMSO). The results of the MTT assay were evaluated on a Tecan Infinite M200 PRO (Tecan Austria GmbH, Grödig, Austria) plate spectrophotometer by comparing the optical density of a formazan solution at 570 nm in the assay and control wells. The half maximal inhibitory concentrations (IC50) were calculated by AAT Bioquest-calculator (https://www.aatbio.com/tools/ic50-calculator (accessed on 14 November 2022)).

human dermal fibroblasts = assay: Cytotoxicity against human dermal fibroblasts (MTT assay); format: cell-based; conditions: Fibroblast, 72 h, read-out: IC50, Human Dermal Fibroblasts
Protocol: as §1

Sprague-Dawley (SD) rats = assay: Hot plate test (analgesic activity); format: in vivo; conditions: Rattus norvegicus, hot plate test, rats, ip, dose 10 mg/kg, eight independent experiments
Procedure, shortened: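 Test compounds were given i.p. as suspensions in 1% starch mucilage to SD rats (3 male, 3 female per group), vehicle as negative control. At 1 and 2 h post-dose, latency to nociceptive response (jumping, hind paw licking/shaking) on a 50 °C plate was recorded, 30 s cutoff.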

Sprague-Dawley rats = assay: Carrageenan-induced paw edema model (anti-inflammatory activity); format: in vivo; conditions: ip, dose 10 mg/kg, four independent experiments
Protocol: Anti-inflammatory activity was studied in Sprague-Dawley rats (3 male and 3 female animals per group) by using the common carrageenan-induced paw edema model. The investigated compounds in 1% starch mucilage were intraperitoneally administered at the corresponding dose to a treated group of rodents 30 min before the injection of 0.1 mL of freshly prepared 1% carrageenan (λ-carrageenan, type IV; Sigma Aldrich, an affiliate of Merck KGaA, Darmstadt, Germany) solution in the right hind paw plantar surface. The negative control group was treated with 1% starch mucilage solution only. Diclofenac sodium (10 mg/kg in 1% starch mucilage solution) was used as a reference drug. Paw volumes were measured oncometrically with water plethysmometer (TSE Volume Meter, Bad Homburg, Germany) before carrageenan administration (“zero time”) and at 1st, 3rd, 5th and 24th h after its injection. An anti-inflammatory activity of the sample at a certain time point was calculated in two steps. First, the percentage of an edema increment (i.e., relative volume change for the inflamed paw vs. “zero time” value) both in the negative control group (Pc) and in the treated group (Ptr) were calculated for this time point for each animal. The difference between treated and control group was considered significant at p < 0.05. Then, for such cases, swelling inhibition was calculated according to the formula: 100% (Pc − Ptr)/Pc and considered as a measure of anti-inflammatory activity of the sample.

[1] = Oxygen radical absorbance capacity (ORAC-FL) assay; conditions: n.a. = inactive; i.t.s. = interferes with test system
Procedure, shortened: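 Fluorescein oxidative degradation by the peroxyl radical generator AAPH is monitored in the presence of test compound, a HAT-based read-out. Activity is expressed relative to Trolox as reference antioxidant.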

[2] = Ferric reducing antioxidant power (FRAP) assay; conditions: 20 μM; n.a. = inactive
Source text: The FRAP assay measures the ability of anti-oxidants to reduce the ferric 2,4,6-tripyridyl-s-triazine complex [Fe(TPTZ)2]^3+ to the intensely blue ferrous colored complex [Fe(TPTZ)2]^2+ with an absorption maximum at λ = 593 nm. The reducing ability of a compound is an indicator of its potential anti-oxidant activity. 2,4,6-Tris(pyridin-2-yl)-1,3,5-triazine (TPTZ), FeCl3·6H2O, Trolox and DMSO were obtained from Sigma-Aldrich Chemical Co (St. Louis, MO, USA).
The ferric reducing ability of the compounds was determined by the method in microplate adapted version described in [116]. The FRAP reagent was prepared by mixing acetate buffer (0.3 M, pH 3.6), TPTZ (10 mM in 40 mM HCl) and FeCl3·6H2O (20 mM in distilled water) in a ratio of 10:1:1 immediately before use. Compounds were dissolved in DMSO and tested in the concentration 20 μM. The solvent content in the reaction mixture was 4% (v/v). The test compounds (10 μL of 0.5 mM solution) were added to the FRAP reagent solution (240 μL) and mixed thoroughly. The reaction was carried out at 37 °C in the dark; the incubation time was 1 h. The absorbance at 600 nm was monitored spectrophotometrically by a FLUOStar OPTIMA microplate reader (BMG Labtech, Ortenberg, Germany) at 37 °C. Trolox was used as a reference compound. Values were obtained from four replicates of each sample in three independent experiments.
The ferric reducing ability of compounds was expressed as TE units (antioxidant activity in Trolox equivalent), the values calculated as the ratio of the concentrations of Trolox and the test compound resulting in the same effect. The calculations were carried out using Origin 6.1 for Windows. Results were presented as mean ± SEM, calculated using GraphPad Prism version 6.05 for Windows, GraphPad Software.

[3] = ABTS radical cation scavenging activity assay; parameters: key to ABTS•+-scavenging activity, TEAC (trolox equivalent antioxidant capacity): TEAC = ratio of compound slope to Trolox slope vs ABTS absorbance; conditions: mean ± SEM; for ABTS•+-scavenging activity, TEAC (trolox equivalent antioxidant capacity): n.a. = inactive
Procedure, shortened: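 ABTS•+ (from 7 mM ABTS plus 2.45 mM persulfate) mixed with compound, 5 × 10^–7–4 × 10^–4 M, 1 h at 30 °C; absorbance decrease read at 734 nm. TEAC from slope ratio versus Trolox; IC50 as 50% radical reduction for compounds exceeding 60% reduction at 100 µM.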

ratTRPV1 (rTRPV1) = molecular target: T1, ratTRPV1 (rTRPV1) (Rattus norvegicus, UniProt O35433); assay: TRPV1 calcium imaging in CHO cells (acid / 2APB activation); format: cell-based; conditions: 50 μM
T1 construct: expressed in transfected cells
Protocol: Testing for receptors ratTRPA1 (rTRPA1) and ratTRPV1 (rTRPV1), stably expressed in CHO cells, was carried out using the calcium imaging method as described in [123, 124]. Fluorescence was performed using NOVOstar (BMG LABTECH, Ortenberg, Germany). The tested substances in 26% DMSO solution or 26% DMSO solution alone (negative control) (5 μL) were added to the cells loaded with the cytoplasmic calcium indicator Fluo-4AM using Fluo-4 Direct™ Calcium Assay Kit (Thermo Fisher Scientific Inc., Waltham, MA, USA) (60 μL) and incubated 5–10 min. Final DMSO concentration was 2%. Changes in cell fluorescence (λex = 485 nm, λem = 520 nm) were monitored at 25 °C before and after the addition of relevant agonist. The AITC final concentration 160 μM was used for rTRPA1 activation. For rTRPV1 activation we used (1) acid-salt buffer pH4.01 (diluted 2 times Buffer solution pH 4.01 (Mettler Toledo, Greifensee, Switzerland) containing 150 mM NaCl), (2) 2APB in 10 mM HEPES/HBSS, pH 7.4—final concentration 160 μM, or (3) 2APB in acid-salt buffer pH 4.01—final concentration 80 μM. Nonspecificity was tested on wild type CHO.
To achieve the required level of acidification, the cell medium with fluorescent dye (pH 7.4) was pre-titrated to determine the required volume of acid-salt buffer until pH 6.2 was reached. The pH level was also monitored after the test as an average of 10–12 wells. […]

T1 sequence (O35433 whole entry): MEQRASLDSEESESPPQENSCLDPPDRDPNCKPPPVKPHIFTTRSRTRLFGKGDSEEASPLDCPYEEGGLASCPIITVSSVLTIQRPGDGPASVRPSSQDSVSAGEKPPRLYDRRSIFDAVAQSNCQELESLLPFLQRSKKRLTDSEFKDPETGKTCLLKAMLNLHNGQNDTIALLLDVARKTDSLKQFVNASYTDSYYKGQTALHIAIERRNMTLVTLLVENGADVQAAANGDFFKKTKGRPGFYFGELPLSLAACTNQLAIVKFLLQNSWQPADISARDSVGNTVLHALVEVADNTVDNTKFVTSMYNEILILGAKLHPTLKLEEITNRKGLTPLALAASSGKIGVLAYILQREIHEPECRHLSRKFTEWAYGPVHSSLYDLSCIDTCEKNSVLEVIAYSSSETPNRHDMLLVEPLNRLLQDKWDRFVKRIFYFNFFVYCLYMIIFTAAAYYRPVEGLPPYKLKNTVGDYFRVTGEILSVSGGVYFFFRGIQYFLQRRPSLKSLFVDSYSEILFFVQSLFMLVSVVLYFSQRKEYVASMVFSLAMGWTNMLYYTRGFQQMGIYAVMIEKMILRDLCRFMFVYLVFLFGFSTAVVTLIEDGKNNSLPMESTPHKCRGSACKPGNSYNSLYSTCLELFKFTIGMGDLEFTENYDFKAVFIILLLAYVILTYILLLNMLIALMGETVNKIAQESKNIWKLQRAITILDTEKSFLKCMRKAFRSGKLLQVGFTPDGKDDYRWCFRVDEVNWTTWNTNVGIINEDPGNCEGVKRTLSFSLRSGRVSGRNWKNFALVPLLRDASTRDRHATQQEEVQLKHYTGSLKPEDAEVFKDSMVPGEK

Question: For `Cc1ccc(N/N=C2\C(=O)N(c3ccc(C)cc3)N=C2C(F)(F)C(F)(F)F)cc1`, which melting point is on record?
Answer: 165 to 166 °C

Question: With `CC[C@@]1(O)C(=O)OCc2c1cc1n(c2=O)Cc2cc3ccccc3nc2-1` [Camptothecin, reference compound] as the molecule, how does the IC50 (HeLa tumor cell line) read?
Answer: 1.08 ± 0.98 µM

Question: What about the IC50 (human dermal fibroblasts) of the same molecule?
Answer: 5.38 ± 0.48 µM

Question: With `O=C(O)Cc1ccccc1Nc1c(Cl)cccc1Cl` [Diclofenac, reference compound] as the molecule, how does the change in vivo at 10 mg/kg (Sprague-Dawley (SD) rats; 1 h, read-out: Latent Period Prolongation, % 1 h) read?
Answer: 63.5 ± 18.2%

Question: What about the change in vivo at 10 mg/kg (Sprague-Dawley (SD) rats; 2 h, read-out: Latent Period Prolongation, % 2 h) of the same molecule?
Answer: 70 ± 20.8%

Question: What about the “Inhibition of Paw Edema Development Comparing to Control, after 1 h” value (Sprague-Dawley rats) of the same molecule?
Answer: 35.6 ± 5.8 ^1%

Question: And the “Inhibition of Paw Edema Development Comparing to Control, after 3 h” value (Sprague-Dawley rats)?
Answer: 54.3 ± 12.1 ^1%

Question: And the “Inhibition of Paw Edema Development Comparing to Control, after 5 h” value (Sprague-Dawley rats)?
Answer: 46.2 ± 13.2 ^1%

Question: Which results are given for `COc1cccc2c1C(=O)c1c(O)c3c(c(O)c1C2=O)C[C@@](O)(C(=O)CO)C[C@@H]3O[C@H]1C[C@H](N)[C@H](O)[C@H](C)O1` [Doxorubicin, reference compound]?
Answer: IC50 (HeLa tumor cell line; MTT, n.a. = inactive): 4.25 ± 0.55 µM; IC50 (human dermal fibroblasts; MTT, n.a. = inactive): 2.72 ± 0.26 µM

Question: Which “ORAC-FL (TE, antioxidant activity in Trolox equivalents)” value [1] does the source give for `CC1=NN(c2ccccc2)C(=O)C1` [Edaravone, reference compound] here?
Answer: 3.71 ± 0.06

Question: And the “FRAP (TE, antioxidant activity in Trolox equivalents)” value [2]?
Answer: 0.80 ± 0.01

Question: And the IC50 [3]?
Answer: 21.4 ± 1.8 µM

Question: And the “ABTS•+-scavenging activity, TEAC (trolox equivalent antioxidant capacity)” value [3]?
Answer: 0.96 ± 0.04

Question: What does the source list for `Cc1c(C)c2c(c(C)c1O)CCC(C)(C(=O)O)O2` (stereo not shown) [Trolox, 6-hydroxy-2,5,7,8-tetramethychroman-2-carboxylic acid, reference compound]?
Answer: ORAC-FL (TE, antioxidant activity in Trolox equivalents) [1]: 1.0; FRAP (TE, antioxidant activity in Trolox equivalents) [2]: 1.0; IC50 [3]: 19.7 ± 0.8 µM; ABTS•+-scavenging activity, TEAC (trolox equivalent antioxidant capacity) [3]: 1.0

Question: For `Oc1cc2c(cc1O)CN(C(=S)NCCc1ccc(Cl)cc1)CCC2` [capsazepine], which “inhibition of the increase in intracellular Ca2+ (TRPV1 activation by acidic solution or 160 μM 2APB)” value (ratTRPV1 (rTRPV1)) is on record?
Answer: effectively inhibited
